Assay results taken from patent US9168301B2 (NATIONAL TSING HUA UNIVERSITY, priority 2011, dated 2015).
Read-outs that look alike come from different tables or passages of the source.

Columns and labels:
[1] = liver tumor-bearing SD rats, 25 mg B/kg bw one-shot i.v., n = 12
[2] = injection dose 60 mg of 10B stable isotope per kilogram of human body weight; cited from earlier work
[3] = tested on: N1-S1 rat hepatoma liver tumor
Description: The implantation of tumor cells: before anesthesia, the SD rats were subcutaneously injected with 0.1 mg/kg bw of Atropine, so as to inhibit the secretion of respiratory tract and salivary gland caused by anesthetics, and prevent bradycardia resulted from the overactivity of vagus nerve. After administering Atropine for 10-15 minutes, the rats were intraperitoneally injected with 20-40 mg/kg bw of Zoletil 50 and 10 mg/kg bw of Xylazine to anesthetize and sedate the animals. After the anesthetia, the subxiphoid incision was done to allow for tumor implantation. A surgical area on the rat was shaved and disinfected with 75% alcohol and iodine, and then a 3-cm incision was made along the midline of thin layer; the muscle layer was elevated to make an opening smaller than the skin layer, and both sides of the rat's abdomen was gently pressed to reveal the liver. A 29 G syringe was loaded with the N1-S1 tumor cell suspension in advance, and then used to slowly inject the suspension into a hepatic lobe of the rat; each of the rats were injected with 6×10^6 cell/0.1 mL of the suspension. After the implantation, the peritoneum was stitched back with an absorbable suture, before using a nylon suture to stitch back the skin layer. The operated rats were then released back into the cage, and their activities and survival were continuously monitored.
A commercial ultrasound scanner (TOSHIBA Xario) was used to scan the liver tumors, and a linear probe (PLT-1204BT) was used because it imparts better resolution; the frequency of the scanning was set at 14 MHz. After the anesthesia, the experimental animals were subjected to B-mode ultrasound imaging, so as to confirm whether the induction and growth of the tumors. […] Sagittal sections and transverse sections were obtained for the experimental animals before the BNCT treatment, and on the 10th, 30th, 60th, and 80th day after the BNCT treatment, in order to estimate the size of the tumors, and also combined Doppler mode with 3D imaging to evaluate the distribution of vasculature in the tumors, as well as the relative position of the tumors in the abdominal cavities.
The experimental animals were divided into three groups; a normal group (which was made up of normal rats), a tumor comparison group (in which the rats received the implantation of tumor cells but not the BNCT treatment), and a BNCT treatment group; the BNCT treatment group was divided into subgroups of rats that received different physical doses of irradiation.
The rats implanted with the N1-S1 tumor cells were subjected to the BNCT treatment on the 17th day after the implantation. […] At 15 minutes before the irradiation, the rats were injected with Atropine and Zoletil to allow for longer anesthesia. Each of the rats were placed on a fixing frame with its tumor-bearing area close to the beam aperture of the Tsing Hua Open-pool Reactor (THOR), and then different duration of neutron irradiation was performed under a specific neutron flux, in order to acquire a specific irradiation dose. After the irradiation, an on-line neutron monitoring system for the THOR was used to confirm the actual irradiation dose.
The tumor was scanned by using a commercial ultrasound scanner (TOSHIBA Xario), and the scanning frequency was set at 14 MHz. […] Ultrasound imaging was used to track growths or disappearances of the tumors, as well as changes in the blood vessels surrounding the tumors within 80 days of the BNCT treatment. The 2D mode of ultrasound imaging was employed to confirm the status of a tumor, and sagittal and transverse sections were obtained to estimate the size of the tumor, and the Doppler mode was combined with 3D imaging to evaluate the distribution of vasculature in the tumor, as well as in surroundings thereof.

[4] = tested on: GS-9L, U-343MGa, HeLa, V79, and B16 cells; conditions: cited from earlier work
[5] = Description: The serum biochemical parameters of the rats were monitored by drawing blood samples from the rats' tail veins once before the tumor implantation, and weekly after the tumor implantation. When a rat was sacrificed, a blood sample was also drawn from its heart. Whole blood was collected from a rat and held in a serum separation tube (Vacationer, Franklin Lakes, N.J., USA), then centrifuged for 15 minutes at 3000 rpm, followed by preserving the serum upper clean solution by freezing. Afterwards, the College of Veterinary Medicine of National Chung Hsing University was commissioned with the task of analyzing the serum biochemical parameters of this solution, in which a serum biochemical analyzer (Chiron Diagnostics Corporation, Oberlin, Ohio, USA) was utilized to analyze concentrations of the serum enzymes related to liver and kidney functions.
[6] = 4 hours after the injection
Description: Before measuring boron concentration of a sample, it needs to undergo microwave digestion first. A sample was initially placed into a Teflon high-pressure digestion vessel, then added with 3 mL of concentrated nitric acid (14N, 65%) and 0.5 mL of hydrogen peroxide (30-35%), and the vessel was sealed before placing the vessel into a microwave digestion system (MLS 1200 Milestone, Italia) for sample decomposition. […] The sample subsequently turned into a clear solution after complete digestion. After diluting the sample with deionized water, an Inductively Coupled Plasma Atomic Emission Spectrometer (ICP-AES, OPTIMA 2000 DV, PerkinElmer Instruments) was used to measure the boron concentration of the sample. For the conditions of the analysis, the temperature of argon plasma was set at 6000-7000 K; the analytical wavelength was set at 249.773 nm, and the liquid uptake rate was set at approximately 2 mL/min; the operating voltage after the formation of plasma was set at 40 V.

[7] = 4 days after the BNCT treatment
[8] = G2, day −1 (before BNCT, baseline)
[9] = G3, day −1 (before BNCT, baseline)

In the case of `OB(O)O` [boric acid], the “Cmax, highest drug concentration in blood” value [1] is given as 104.6 ± 36.23 ppm, the “adverse effect of injected boric acid” value [2] is given as “no permanent adverse effect” and the “reduction of tumor size” value ([3]; 30th day after BNCT treatment) is given as “approximately 90%”. For the same molecule, the “histopathology of tumor cells, high magnification” value [3, 7] was “shrunk in size, become hollow, broken down and dead”, the “tumor shrinkage ratio (ultrasound)” value ([3]; G1 (11.18 Gy), 30 days after BNCT) was 0.94 ± 0.01 and the “tumor shrinkage ratio (ultrasound)” value ([3]; G1 (11.18 Gy), 60 days after BNCT) was 0.94 ± 0.02. The “tumor shrinkage ratio (ultrasound)” value ([3]; G1 (11.18 Gy), 80 days after BNCT) was 0.95 ± 0.02, the “tumor shrinkage ratio (ultrasound)” value ([3]; G1 (tumor physical dose 11.18 Gy), boric acid 25 mg 10B/kg i.v., 11 days after BNCT, 0 = initial size, 1 = vanished) was 0.64 ± 0.07 and the “distribution of blood flow surrounding the tumor (Doppler imaging)” value ([3]; G1, G2 and G3, 8th, 12th, 18th day after BNCT) was “gradually decreased until it could no longer be detected”. For the same molecule, the “tumor shrinkage ratio (ultrasound)” value ([3]; G2 (7.97 Gy), 30 days after BNCT) was 0.89 ± 0.05, the “tumor shrinkage ratio (ultrasound)” value ([3]; G2 (7.97 Gy), 60 days after BNCT) was 0.86 ± 0.07 and the “tumor shrinkage ratio (ultrasound)” value ([3]; G2 (7.97 Gy), 80 days after BNCT) was 0.91 ± 0.05. The “tumor shrinkage ratio (ultrasound)” value ([3]; G2 (tumor physical dose 7.97 Gy), 11 days after BNCT) was 0.62 ± 0.1, the “tumor shrinkage ratio (ultrasound)” value ([3]; G3 (5.61 Gy), 30 days after BNCT) was 0.77 ± 0.06 and the “tumor shrinkage ratio (ultrasound)” value ([3]; G3 (5.61 Gy), 60 days after BNCT) was 0.83 ± 0.08. The “tumor shrinkage ratio (ultrasound)” value ([3]; G3 (5.61 Gy), 80 days after BNCT) was 0.87 ± 0.04, the “tumor shrinkage ratio (ultrasound)” value ([3]; G3 (tumor physical dose 5.61 Gy), 11 days after BNCT) was 0.48 ± 0.42 and the “liver cancer in the rats after BNCT with 10B-boric acid” value ([3]; liver tumor-bearing rats) was “completely disappeared”. The “smallest tumor, size relative to the original size” value ([3]; one month after the BNCT treatment) was 6%, the “tumor size relative to the original tumor size” value ([3]; three subgroups G1-G3, one month after the BNCT treatment) was “less than or equal to 22%” and the “new growth or recurrence of the tumors (ultrasound tracking)” value ([3]; up to 80 days after the BNCT treatment) was “did not reveal any new growth or recurrence of the tumors”. For the same molecule, the “accumulation efficiency in the cells” value ([4]; previous studies) was 1, the “ratio of boron concentrations intracellularly and extracellularly” value ([4]; simple or passive diffusion) was 1 and the “histopathological section of the testis” value [5, 7] was “did not show any abnormalities”. The “change of GPT after the BNCT treatment” value ([5]; BNCT treatment group) was “returned to normal”, the “change in BUN (kidney function)” value ([5]; BNCT treatment group, one month after the BNCT treatment) was “did not show any meaningful changes” and the “clinical signs after BNCT” value ([5]; BNCT treatment groups) was “slight diarrhea and appetite loss”. For the same molecule, the “lowest body weight relative to the initial weight” value ([5]; G1 (11.18 Gy), 8 days after the irradiation) was 78%, the “GOT (AST), serum” value ([5]; G1 (11.18 Gy), day −1 (before BNCT, baseline), normal 83-118) was 250 ± 148 U/L and the “BUN, serum” value ([5]; G1, day 11 after BNCT) was 15 ± 7 mg/dL. For the same molecule, the “GOT (AST), serum” value ([5]; G1, day 11 after BNCT) was 202 ± 127 U/L, the “GPT (ALT), serum” value ([5]; G1, day 11 after BNCT) was 39 ± 13 U/L and the “BUN, serum” value ([5]; G1, day 30 after BNCT) was 14 ± 1 mg/dL. For the same molecule, the “GOT (AST), serum” value ([5]; G1, day 30 after BNCT) was 111 ± 29 U/L, the “GPT (ALT), serum” value ([5]; G1, day 30 after BNCT) was 50 ± 5 U/L and the “BUN, serum” value ([5]; G1, day 80 after BNCT) was 17 ± 3 mg/dL. For the same molecule, the “GOT (AST), serum” value ([5]; G1, day 80 after BNCT) was 127 ± 8 U/L, the “GPT (ALT), serum” value ([5]; G1, day 80 after BNCT) was 54 ± 4 U/L and the “BUN, serum” value ([5]; G1, day −1 (before BNCT, baseline), normal 11-17) was 16 ± 2 mg/dL. The “GPT (ALT), serum” value ([5]; G1, day −1 (before BNCT, baseline), normal 35-47) was 54 ± 7 U/L, the “lowest body weight relative to the initial weight” value ([5]; G2 (7.97 Gy), 4 days after the irradiation) was 89% and the “GOT (AST), serum” value ([5]; G2 (7.97 Gy), day −1 (before BNCT, baseline)) was 271 ± 39 U/L. For the same molecule, the “BUN, serum” value ([5]; G2, day 11 after BNCT) was 13 ± 2 mg/dL, the “GOT (AST), serum” value ([5]; G2, day 11 after BNCT) was 204 ± 9 U/L and the “GPT (ALT), serum” value ([5]; G2, day 11 after BNCT) was 45 ± 15 U/L. The “BUN, serum” value ([5]; G2, day 30 after BNCT) was 17 ± 5 mg/dL, the “GOT (AST), serum” value ([5]; G2, day 30 after BNCT) was 144 ± 20 U/L and the “GPT (ALT), serum” value ([5]; G2, day 30 after BNCT) was 57 ± 3 U/L. For the same molecule, the “BUN, serum” value ([5]; G2, day 80 after BNCT) was 16 ± 2 mg/dL, the “GOT (AST), serum” value ([5]; G2, day 80 after BNCT) was 116 ± 8 U/L and the “GPT (ALT), serum” value ([5]; G2, day 80 after BNCT) was 62 ± 13 U/L. The “BUN, serum” value [5, 8] was 12 ± 1 mg/dL, the “GPT (ALT), serum” value [5, 8] was 56 ± 9 U/L and the “lowest body weight relative to the initial weight” value ([5]; G3 (5.61 Gy), 3 days after the irradiation) was 92%. The “GOT (AST), serum” value ([5]; G3 (5.61 Gy), day −1 (before BNCT, baseline)) was 168 ± 19 U/L, the “BUN, serum” value ([5]; G3, day 11 after BNCT) was 15 ± 3 mg/dL and the “GOT (AST), serum” value ([5]; G3, day 11 after BNCT) was 180 ± 8 U/L. For the same molecule, the “GPT (ALT), serum” value ([5]; G3, day 11 after BNCT) was 53 ± 4 U/L, the “BUN, serum” value ([5]; G3, day 30 after BNCT) was 14 ± 3 mg/dL and the “GOT (AST), serum” value ([5]; G3, day 30 after BNCT) was 153 ± 3 U/L. For the same molecule, the “GPT (ALT), serum” value ([5]; G3, day 30 after BNCT) was 55 ± 6 U/L, the “BUN, serum” value ([5]; G3, day 80 after BNCT) was 18 ± 3 mg/dL and the “GOT (AST), serum” value ([5]; G3, day 80 after BNCT) was 133 ± 41 U/L. For the same molecule, the “GPT (ALT), serum” value ([5]; G3, day 80 after BNCT) was 58 ± 12 U/L, the “BUN, serum” value [5, 9] was 13 ± 1 mg/dL and the “GPT (ALT), serum” value [5, 9] was 50 ± 10 U/L. The “change of liver enzyme GOT after the BNCT treatment” value ([5]; all three subgroups of the BNCT treatment group) was “decreased rapidly”, the “radiation damage in pancreases and spleens, tissue histopathological sections” value ([5]; liver tumor-bearing rats after BNCT with 10B-boric acid) was “did not show radiation damage” and the “radiation effect in the testis” value ([5]; one month after the BNCT irradiation, degree related to irradiation dose) was “atrophy of seminiferous tubules”. The testis effect ([5]; only rats that received 11.18 Gy (G1)) was “clear testicular atrophy” and the “difference between the boron concentrations in the tumors and the normal liver cells” value [6] was “insignificant”.
